Reference: ChEMBL document CHEMBL2311510, “A new single-photon emission computed tomography (SPECT) imaging agent for serotonin transporters: [(125)I]Flip-IDAM, (2-((2-((dimethylamino)methyl)-4-iodophenyl)thio)phenyl)methanol” (Bioorg Med Chem Lett, 2013)

Experiments:
Hypothalamus [1] = assay: Biodistribution in Sprague-Dawley rat hypothalamus at 11 uCi, iv measured 60 mins post compound dose; assay type: ADME, organism-based; settings: in vivo, 1 h
Kidney [2] = assay: Biodistribution in Sprague-Dawley rat kidney at 11 uCi, iv measured 30 mins post compound dose; assay type: ADME, organism-based; settings: in vivo, 0.5 h
Striatum [3] = assay: Biodistribution in Sprague-Dawley rat striatum at 11 uCi, iv measured 60 mins post compound dose; assay type: ADME, organism-based; settings: in vivo, 1 h
Spleen [4] = assay: Biodistribution in Sprague-Dawley rat spleen at 11 uCi, iv measured 120 mins post compound dose; assay type: ADME, organism-based; settings: in vivo, 2 h
Heart [5] = assay: Biodistribution in Sprague-Dawley rat heart at 11 uCi, iv measured 2 mins post compound dose; assay type: ADME, organism-based; settings: in vivo
Cerebellum [6] = assay: Biodistribution in Sprague-Dawley rat cerebellum at 11 uCi, iv measured 60 mins post compound dose; assay type: ADME, organism-based; settings: in vivo, 1 h
Hypothalamus [7] = assay: Biodistribution in Sprague-Dawley rat hypothalamus at 11 uCi, iv measured 120 mins post compound dose; assay type: ADME, organism-based; settings: in vivo, 2 h
Hypothalamus [8] = assay: Biodistribution in Sprague-Dawley rat hypothalamus at 11 uCi, iv measured 2 mins post compound dose; assay type: ADME, organism-based; settings: in vivo
Zone of skin [9] = assay: Biodistribution in Sprague-Dawley rat skin assessed as compound level per organ at 11 uCi, iv measured 60 mins post compound dose; assay type: ADME, organism-based; settings: in vivo, 1 h
Heart [10] = assay: Biodistribution in Sprague-Dawley rat heart at 11 uCi, iv measured 30 mins post compound dose; assay type: ADME, organism-based; settings: in vivo, 0.5 h
Nucleic Acid [11] = assay: Ratio of drug level in cortex to cerebellum in Sprague-Dawley rat at 11 uCi, iv measured 2 mins post compound dose; assay type: ADME, organism-based; settings: in vivo
Hippocampus = assay: Biodistribution in Sprague-Dawley rat hippocampus at 11 uCi, iv measured 120 mins post compound dose; assay type: ADME, organism-based; settings: in vivo, 2 h
Kidney [12] = assay: Biodistribution in Sprague-Dawley rat kidney at 11 uCi, iv measured 60 mins post compound dose; assay type: ADME, organism-based; settings: in vivo, 1 h
Striatum [13] = assay: Biodistribution in Sprague-Dawley rat striatum at 11 uCi, iv measured 120 mins post compound dose; assay type: ADME, organism-based; settings: in vivo, 2 h
Liver = assay: Biodistribution in Sprague-Dawley rat liver assessed as compound level per organ at 11 uCi, iv measured 60 mins post compound dose; assay type: ADME, organism-based; settings: in vivo, 1 h
Nucleic Acid [14] = assay: Ratio of drug level in rest of brain region to cerebellum in Sprague-Dawley rat at 11 uCi, iv measured 60 mins post compound dose; assay type: ADME, organism-based; settings: in vivo, 1 h
Brain = assay: Biodistribution in Sprague-Dawley rat brain at 11 uCi, iv measured 30 mins post compound dose; assay type: ADME, organism-based; settings: in vivo, 0.5 h
Spleen [15] = assay: Biodistribution in Sprague-Dawley rat spleen at 11 uCi, iv measured 30 mins post compound dose; assay type: ADME, organism-based; settings: in vivo, 0.5 h
Nucleic Acid [16] = assay: Ratio of drug level in hippocampus to cerebellum in Sprague-Dawley rat at 11 uCi, iv measured 2 mins post compound dose; assay type: ADME, organism-based; settings: in vivo
Nucleic Acid [17] = assay: Ratio of drug level in striatum to cerebellum in Sprague-Dawley rat at 11 uCi, iv measured 120 mins post compound dose; assay type: ADME, organism-based; settings: in vivo, 2 h
Lung = assay: Biodistribution in Sprague-Dawley rat lung assessed as compound level per organ at 11 uCi, iv measured 120 mins post compound dose; assay type: ADME, organism-based; settings: in vivo, 2 h
Bone = assay: Biodistribution in Sprague-Dawley rat bone assessed as compound level per organ at 11 uCi, iv measured 30 mins post compound dose; assay type: ADME, organism-based, Bone element; settings: in vivo, 0.5 h
Striatum [18] = assay: Biodistribution in Sprague-Dawley rat striatum at 11 uCi, iv measured 2 mins post compound dose; assay type: ADME, organism-based; settings: in vivo
Kidney [19] = assay: Biodistribution in Sprague-Dawley rat kidney assessed as compound level per organ at 11 uCi, iv measured 30 mins post compound dose; assay type: ADME, organism-based; settings: in vivo, 0.5 h
Cerebellum [20] = assay: Biodistribution in Sprague-Dawley rat cerebellum at 11 uCi, iv measured 2 mins post compound dose; assay type: ADME, organism-based; settings: in vivo
Zone of skin [21] = assay: Biodistribution in Sprague-Dawley rat skin at 11 uCi, iv measured 30 mins post compound dose; assay type: ADME, organism-based; settings: in vivo, 0.5 h
Muscle tissue = assay: Biodistribution in Sprague-Dawley rat muscle assessed as compound level per organ at 11 uCi, iv measured 30 mins post compound dose; assay type: ADME, organism-based; settings: in vivo, 0.5 h
Nucleic Acid [22] = assay: Ratio of drug level in rest of brain region to cerebellum in Sprague-Dawley rat at 11 uCi, iv measured 2 mins post compound dose; assay type: ADME, organism-based; settings: in vivo
Spleen [23] = assay: Biodistribution in Sprague-Dawley rat spleen assessed as compound level per organ at 11 uCi, iv measured 120 mins post compound dose; assay type: ADME, organism-based; settings: in vivo, 2 h
Pancreas = assay: Biodistribution in Sprague-Dawley rat pancreas at 11 uCi, iv measured 120 mins post compound dose; assay type: ADME, organism-based; settings: in vivo, 2 h

CN(C)Cc1cc([125I])ccc1Sc1ccccc1CO
Drug uptake (Hypothalamus [1]): 0.32 % ID/g | Drug uptake (Kidney [2]): 1.45 % ID/g | Drug uptake (Striatum [3]): 0.25 % ID/g | Drug uptake (Spleen [4]): 0.12 % ID/g | Drug uptake (Heart [5]): 1.46 % ID/g | Drug uptake (Cerebellum [6]): 0.12 % ID/g | Drug uptake (Hypothalamus [7]): 0.1 % ID/g | Drug uptake (Hypothalamus [8]): 1.54 % ID/g | Drug uptake (Zone of skin [9]): 6.4 %ID | Drug uptake (Heart [10]): 0.38 % ID/g | Ratio (Nucleic Acid [11]): 0.92 | Drug uptake (Hippocampus): 0.08 % ID/g | Drug uptake (Kidney [12]): 0.72 % ID/g | Drug uptake (Striatum [13]): 0.1 % ID/g | Drug uptake (Liver): 3.8 %ID | Ratio (Nucleic Acid [14]): 1.1 | Drug uptake (Brain): 0.53 % ID/g | Drug uptake (Spleen [15]): 0.55 % ID/g | Ratio (Nucleic Acid [16]): 0.85 | Ratio (Nucleic Acid [17]): 1.89 | Drug uptake (Lung): 0.41 %ID | Drug uptake (Bone): 0.02 %ID | Drug uptake (Striatum [18]): 1.28 % ID/g | Drug uptake (Kidney [19]): 2.66 %ID | Drug uptake (Cerebellum [20]): 1.5 % ID/g | Drug uptake (Zone of skin [21]): 0.31 % ID/g | Drug uptake (Muscle tissue): 17.1 %ID | Ratio (Nucleic Acid [22]): 0.75 | Drug uptake (Spleen [23]): 0.07 %ID | Drug uptake (Pancreas): 0.16 % ID/g
